The values that follow come from patent publication US12637461B2, “Compounds for the activation of AMPK” (PFIZER INC., priority 2022, dated 2026).

pEC50: −log10 of the molar value.

This experiment concerns the target T1, human AMPK α2β2γ3 (Homo sapiens, UniProt O43741+P54646+Q9UGI9).
T1 construct: expressed in transfected cells; host or cells: HEK293AD cells, MaxCyte bulk electroporation
In words: Primary cellular assay: γ3 associated phospho-Thr172 AMPK detection (custom pAMPK Surefire AlphaLISA) in α2β2γ3 bulk transiently transfected HEK293 cells. The following applies: activation of human AMPK α2β2γ3 (γ3 pThr172 AMPK signal) in transiently transfected HEK293 cells, 20 minutes compound incubation; for Emax: 20 min, geometric mean of the asymptotic max, read-out: Assay GMean Asy. Max (%); for pEC50: geometric mean EC50, read-out: Assay GMean EC50. Format: cell-based. A digest of the protocol: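 Transiently co-transfected (α2/β2/γ3 plasmids, electroporation) HEK293AD cells, plated 2 days in low-glucose DMEM+10% FBS, treated 20 min with compounds (11-point half-log dilutions). Lysates read by modified AlphaLISA capturing γ3 with pThr172 antibody detection. % effect relative to 30 μM HPE and DMSO; EC50 and Emax from curve fit.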
Background: Bead proximity is the source of the signal in Alpha formats.

T1 sequence (P54646 whole entry): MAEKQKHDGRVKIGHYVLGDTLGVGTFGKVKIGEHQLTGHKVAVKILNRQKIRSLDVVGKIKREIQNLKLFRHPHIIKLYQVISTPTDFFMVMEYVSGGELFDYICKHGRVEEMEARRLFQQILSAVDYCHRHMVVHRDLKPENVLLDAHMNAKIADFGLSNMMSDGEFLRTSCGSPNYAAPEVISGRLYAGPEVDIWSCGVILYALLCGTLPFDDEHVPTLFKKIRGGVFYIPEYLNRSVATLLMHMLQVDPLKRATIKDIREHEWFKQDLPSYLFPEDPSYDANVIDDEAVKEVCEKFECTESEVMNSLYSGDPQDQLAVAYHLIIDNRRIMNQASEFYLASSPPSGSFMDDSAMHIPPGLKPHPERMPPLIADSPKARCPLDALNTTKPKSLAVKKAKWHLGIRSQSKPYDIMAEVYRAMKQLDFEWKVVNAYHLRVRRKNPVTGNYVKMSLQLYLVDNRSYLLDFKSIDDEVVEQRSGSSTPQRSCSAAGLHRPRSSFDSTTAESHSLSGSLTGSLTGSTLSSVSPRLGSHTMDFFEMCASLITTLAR
T1 sequence (O43741 whole entry): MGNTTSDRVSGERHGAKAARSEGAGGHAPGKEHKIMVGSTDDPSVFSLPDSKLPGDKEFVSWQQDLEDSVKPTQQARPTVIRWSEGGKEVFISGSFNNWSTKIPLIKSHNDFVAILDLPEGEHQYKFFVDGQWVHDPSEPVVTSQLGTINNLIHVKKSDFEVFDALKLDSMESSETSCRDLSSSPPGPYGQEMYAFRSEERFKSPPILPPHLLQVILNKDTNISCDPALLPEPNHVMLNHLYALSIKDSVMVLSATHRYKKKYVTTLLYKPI
T1 sequence (Q9UGI9 whole entry): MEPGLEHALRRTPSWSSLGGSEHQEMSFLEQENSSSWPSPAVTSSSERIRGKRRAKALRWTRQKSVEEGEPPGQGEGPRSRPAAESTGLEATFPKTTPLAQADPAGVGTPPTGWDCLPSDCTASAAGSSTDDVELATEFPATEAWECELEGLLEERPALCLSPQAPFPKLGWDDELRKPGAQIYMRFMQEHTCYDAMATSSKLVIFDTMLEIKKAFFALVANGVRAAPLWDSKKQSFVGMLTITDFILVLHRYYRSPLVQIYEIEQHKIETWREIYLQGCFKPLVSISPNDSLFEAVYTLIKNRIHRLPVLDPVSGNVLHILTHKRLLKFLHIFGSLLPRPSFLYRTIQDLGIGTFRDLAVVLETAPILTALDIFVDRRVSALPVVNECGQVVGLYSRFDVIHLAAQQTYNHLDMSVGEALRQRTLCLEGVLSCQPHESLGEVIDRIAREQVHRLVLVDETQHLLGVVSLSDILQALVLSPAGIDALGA

Consider `Cn1cncc1C(=O)N1CC(Nc2ncc3c(c2F)[C@@](C)(c2cccc(Cl)c2F)CN(c2ccc(CO)cn2)C3=O)C1` [compound 58, (4R)-4-(3-chloro-2-fluorophenyl)-5-fluoro-2-[5-(hydroxymethyl)pyridin-2-yl]-4-methyl-6-{[1-(1-methyl-1H-imidazole-5-carbonyl)azetidin-3-yl]amino}-3,4-dihydro-2,7-naphthyridin-1(2H)-one], for which the Emax amounted to 74.6% and the pEC50 is 6.95.

For `C[C@]1(c2cccc(Cl)c2F)CN(c2ccc(CO)cn2)C(=O)c2cnc(NC3CN(C(=O)c4ncccn4)C3)c(F)c21` [compound 59, (4R)-4-(3-chloro-2-fluorophenyl)-5-fluoro-2-[5-(hydroxymethyl)pyridin-2-yl]-4-methyl-6-{[1-(pyrimidine-2-carbonyl)azetidin-3-yl]amino}-3,4-dihydro-2,7-naphthyridin-1(2H)-one], the Emax is 62.4% and the pEC50 is 6.80.

Regarding `Cn1cc(C(=O)N2CC(Nc3ncc4c(c3F)[C@@](C)(c3cccc(Cl)c3F)CN(c3ccc(CO)cn3)C4=O)C2)nn1` [compound 60, (4R)-4-(3-chloro-2-fluorophenyl)-5-fluoro-2-[5-(hydroxymethyl)pyridin-2-yl]-4-methyl-6-{[1-(1-methyl-1H-1,2,3-triazole-4-carbonyl)azetidin-3-yl]amino}-3,4-dihydro-2,7-naphthyridin-1(2H)-one], the Emax is 48.6% and the pEC50 was 7.27.

For `Cn1cc(F)c(N2C[C@](C)(c3cccc(Cl)c3F)c3c(cnc(NC4CN(C(=O)C(C)(C)O)C4)c3F)C2=O)n1` [compound 61, (4R)-4-(3-chloro-2-fluorophenyl)-5-fluoro-2-(4-fluoro-1-methyl-1H-pyrazol-3-yl)-6-{[1-(2-hydroxy-2-methylpropanoyl)azetidin-3-yl]amino}-4-methyl-3,4-dihydro-2,7-naphthyridin-1(2H)-one], the Emax stood at 100% and the pEC50 is 7.04.

For the compound `Cn1cc(F)c(N2C[C@](C)(c3cccc(Cl)c3F)c3c(cnc(NC4CN(C(=O)C5(O)CC5)C4)c3F)C2=O)n1` [compound 62, (4R)-4-(3-chloro-2-fluorophenyl)-5-fluoro-2-(4-fluoro-1-methyl-1H-pyrazol-3-yl)-6-{[1-(1-hydroxycyclopropane-1-carbonyl)azetidin-3-yl]amino}-4-methyl-3,4-dihydro-2,7-naphthyridin-1(2H)-one], the Emax amounted to 138% and the pEC50 was 7.01.

As for `Cn1cc(F)c(N2C[C@](C)(c3cccc(Cl)c3F)c3c(cnc(NC4CN(C(=O)CC(F)(F)F)C4)c3F)C2=O)n1` [compound 63, (4R)-4-(3-chloro-2-fluorophenyl)-5-fluoro-2-(4-fluoro-1-methyl-1H-pyrazol-3-yl)-4-methyl-6-{[1-(3,3,3-trifluoropropanoyl)azetidin-3-yl]amino}-3,4-dihydro-2,7-naphthyridin-1(2H)-one], the Emax worked out at 90% and the pEC50 was 7.26.

With `Cn1cc(F)c(N2C[C@](C)(c3cccc(Cl)c3F)c3c(cnc(NC4CN(C(=O)CC(C)(C)O)C4)c3F)C2=O)n1` [compound 64, (4R)-4-(3-chloro-2-fluorophenyl)-5-fluoro-2-(4-fluoro-1-methyl-1H-pyrazol-3-yl)-6-{[1-(3-hydroxy-3-methylbutanoyl)azetidin-3-yl]amino}-4-methyl-3,4-dihydro-2,7-naphthyridin-1(2H)-one], the Emax was found to be 80.4% and the pEC50 was 6.80.

For the compound `Cn1cc(F)c(N2C[C@](C)(c3cccc(Cl)c3F)c3c(cnc(NC4CN(CC(=O)N5CCCC5)C4)c3F)C2=O)n1` [compound 65, (4R)-4-(3-chloro-2-fluorophenyl)-5-fluoro-2-(4-fluoro-1-methyl-1H-pyrazol-3-yl)-4-methyl-6-({1-[2-oxo-2-(pyrrolidin-1-yl)ethyl]azetidin-3-yl}amino)-3,4-dihydro-2,7-naphthyridin-1(2H)-one], the Emax is 83.4% and the pEC50 is 7.26.

Take `CCN(C)C(=O)CN1CC(Nc2ncc3c(c2F)[C@@](C)(c2cccc(Cl)c2F)CN(c2nn(C)cc2F)C3=O)C1` [compound 66, 2-(3-{[(5R)-5-(3-chloro-2-fluorophenyl)-4-fluoro-7-(4-fluoro-1-methyl-1H-pyrazol-3-yl)-5-methyl-8-oxo-5,6,7,8-tetrahydro-2,7-naphthyridin-3-yl]amino}azetidin-1-yl)-N-ethyl-N-methylacetamide]: the Emax came to 88.8% and the pEC50 was 7.53.

For the compound `CNC(=O)CN1CC(Nc2ncc3c(c2F)[C@@](C)(c2cccc(Cl)c2F)CN(c2nn(C)cc2F)C3=O)C1` [compound 67, 2-(3-{[(5R)-5-(3-chloro-2-fluorophenyl)-4-fluoro-7-(4-fluoro-1-methyl-1H-pyrazol-3-yl)-5-methyl-8-oxo-5,6,7,8-tetrahydro-2,7-naphthyridin-3-yl]amino}azetidin-1-yl)-N-methylacetamide], the Emax turned out to be 40.1% and the pEC50 is 7.11.

`Cn1cc(F)c(N2C[C@](C)(c3cccc(Cl)c3F)c3c(cnc(NC4CN(CC(N)=O)C4)c3F)C2=O)n1` [compound 68, 2-(3-{[(5R)-5-(3-chloro-2-fluorophenyl)-4-fluoro-7-(4-fluoro-1-methyl-1H-pyrazol-3-yl)-5-methyl-8-oxo-5,6,7,8-tetrahydro-2,7-naphthyridin-3-yl]amino}azetidin-1-yl)acetamide]: the Emax came out at 29.6% and the pEC50 is 6.61.

Regarding `CN(CC1CC1)C(=O)CN1CC(Nc2ncc3c(c2F)[C@@](C)(c2cccc(Cl)c2F)CN(c2nn(C)cc2F)C3=O)C1` [compound 73, 2-(3-{[(5R)-5-(3-chloro-2-fluorophenyl)-4-fluoro-7-(4-fluoro-1-methyl-1H-pyrazol-3-yl)-5-methyl-8-oxo-5,6,7,8-tetrahydro-2,7-naphthyridin-3-yl]amino}azetidin-1-yl)-N-(cyclopropylmethyl)-N-methylacetamide], the Emax was determined as 46.1% and the pEC50 is 7.34.

In the case of `Cn1cc(F)c(N2C[C@](C)(c3cccc(Cl)c3F)c3c(cnc(NC4CN(CC(=O)N(CC(F)(F)F)C5CC5)C4)c3F)C2=O)n1` [compound 74, 2-(3-{[(5R)-5-(3-chloro-2-fluorophenyl)-4-fluoro-7-(4-fluoro-1-methyl-1H-pyrazol-3-yl)-5-methyl-8-oxo-5,6,7,8-tetrahydro-2,7-naphthyridin-3-yl]amino}azetidin-1-yl)-N-cyclopropyl-N-(2,2,2-trifluoroethyl)acetamide], the Emax turned out to be 129% and the pEC50 is 7.40.

Regarding `COCCN(C(=O)CN1CC(Nc2ncc3c(c2F)[C@@](C)(c2cccc(Cl)c2F)CN(c2nn(C)cc2F)C3=O)C1)C1CC1` [compound 75, 2-(3-{[(5R)-5-(3-chloro-2-fluorophenyl)-4-fluoro-7-(4-fluoro-1-methyl-1H-pyrazol-3-yl)-5-methyl-8-oxo-5,6,7,8-tetrahydro-2,7-naphthyridin-3-yl]amino}azetidin-1-yl)-N-cyclopropyl-N-(2-methoxyethyl)acetamide], the Emax came to 134% and the pEC50 is 7.28.

For `Cn1cc(F)c(N2C[C@](C)(c3cccc(Cl)c3F)c3c(cnc(NC4CN(C(=O)CN[C@@H]5CCOC5)C4)c3F)C2=O)n1` [compound 76, (4R)-4-(3-chloro-2-fluorophenyl)-5-fluoro-2-(4-fluoro-1-methyl-1H-pyrazol-3-yl)-4-methyl-6-{[1-{{[(3R)-oxolan-3-yl]amino}acetyl)azetidin-3-yl]amino}-3,4-dihydro-2,7-naphthyridin-1(2H)-one], the Emax was 59.3% and the pEC50 was 7.25.

`C[C@]1(c2cccc(Cl)c2F)CN(c2cc(F)c(CO)cc2F)C(=O)c2cnc(NC3CN(C(=O)[C@@H]4C[C@@H]4F)C3)c(F)c21` [compound 77, (4R)-4-(3-chloro-2-fluorophenyl)-2-[2,5-difluoro-4-(hydroxymethyl)phenyl]-5-fluoro-6-({1-[(1S,2S)-2-fluorocyclopropane-1-carbonyl]azetidin-3-yl}amino)-4-methyl-3,4-dihydro-2,7-naphthyridin-1(2H)-one]: the Emax is 78.2% and the pEC50 is 7.42.

Consider `Cn1cc(F)c(N2C[C@](C)(c3cccc(Cl)c3F)c3c(cnc(NC4CN(C(=O)[C@@H]5C[C@H]5F)C4)c3F)C2=O)n1` [compound 78, (4R)-4-(3-chloro-2-fluorophenyl)-5-fluoro-6-({1-[(1S,2R)-2-fluorocyclopropane-1-carbonyl]azetidin-3-yl}amino)-2-(4-fluoro-1-methyl-1H-pyrazol-3-yl)-4-methyl-3,4-dihydro-2,7-naphthyridin-1(2H)-one], for which the Emax turned out to be 80.7% and the pEC50 was 7.21.

`CNCc1ccc(N2CC(C)(c3cccc(Cl)c3F)c3nc(NC4CN(C(=O)C5CC5F)C4)ncc3C2=O)cc1F` [compound 80, 8-(3-chloro-2-fluorophenyl)-2-({1-[(1S,2S)-2-fluorocyclopropane-1-carbonyl]azetidin-3-yl}amino)-6-{3-fluoro-4-[(methylamino)methyl]phenyl}-8-methyl-7,8-dihydropyrido[4,3-d]pyrimidin-5(6H)-one, from P11 (ENANT-2)]: the Emax is 154% and the pEC50 was 5.60.

For `CC(C)(CO)NC(=O)N1CC(Nc2ncc3c(n2)C(C)(c2cccc(Cl)c2F)CN(c2ncccc2F)C3=O)C1` (centres unmarked) [compound 87, 3-{[8-(3-chloro-2-fluorophenyl)-6-(3-fluoropyridin-2-yl)-8-methyl-5-oxo-5,6,7,8-tetrahydropyrido[4,3-d]pyrimidin-2-yl]amino}-N-(1-hydroxy-2-methylpropan-2-yl)azetidine-1-carboxamide, from P13 (ENANT-2)], the Emax came out at 175% and the negative logarithm of the EC50 (pEC50) was 6.82.

Usually pEC50 stands for −log10 of the EC50, conventionally taken in molar units.
